From patent US20160145244A1, “CERTAIN PROTEIN KINASE INHIBITORS” (FOCHON PHARMA, INC., priority 2014, published 2016) come the findings set out here.

In one assay the test system is NCI-H3122 cells. The experiment in a line: Cell proliferation assay, NCI-H3122 cells (SRB). In kind it is cell-based. The following applies: Homo sapiens, 72 h exposure. The method, then: (§1) NCI-H3122 or SUP-M2 Cells were plated into 96-well plates (3000-8000/well) in complete medium. After incubation overnight, cells were exposed to various concentrations of compound for further 72 h. Cell proliferation was evaluated by SRB assay (for NCI-H3122 cell) or Cell Counting Kit-8 assay (CCK-8, DOJINDO Molecular Technologies, Inc.) (for SUP-M2 cell). ICso values were calculated by concentration-response curve fitting using a SoftMax pro-based four-parameter method. Each IC50 value was expressed as mean±SD from three separate experiments.

A further assay deals with SUP-M2 cells. The experiment in a line: Cell proliferation assay, SUP-M2 cells (CCK-8). In kind it is cell-based. The following applies: 72 h exposure, Cell Counting Kit-8 assay. The method, then:
as §1
On the technique in general: Formazan colour is commonly taken as a measure of viable cells.

Broadly, the IC50 is the midpoint of a concentration-inhibition curve. Higher therefore signals weaker potency. As to `Cc1cc(Nc2ncnc(Nc3ccccc3S(=O)(=O)C(C)C)n2)c2c(c1C1CCNCC1)C[C@@H](C)O2` [Example 1, (R)—N^2-(2,5-dimethyl-4-(piperidin-4-yl)-2,3-dihydrobenzofuran-7-yl)-N^4-(2-(isopropylsulfonyl)phenyl)-1,3,5-triazine-2,4-diamine], the IC50 came to 52.6 nM in the assay on NCI-H3122 cells and 99.3 nM with SUP-M2 cells. In the case of `Cc1cc(Nc2ncnc(Nc3ccccc3S(=O)(=O)C(C)C)n2)c2c(c1C1CCN(C)CC1)C[C@@H](C)O2` [Example 2, (R)—N^2-(2,5-dimethyl-4-(1-methylpiperidin-4-yl)-2,3-dihydrobenzofuran-7-yl)-N^4-(2-(isopropyl-sulfonyl)phenyl)-1,3,5-triazine-2,4-diamine], the IC50 in the assay with NCI-H3122 cells is 20.8 nM; in the assay with SUP-M2 cells it was 54.4 nM. For `CC(=O)N1CCC(c2c(C)cc(Nc3ncnc(Nc4ccccc4S(=O)(=O)C(C)C)n3)c3c2C[C@@H](C)O3)CC1` [Example 3, (R)-1-(4-(7-((4-((2-(isopropylsulfonyl)phenyl)amino)-1,3,5-triazin-2-yl)amino)-2,5-dimethyl-2,3-dihydrobenzofuran-4-yl)piperidin-1-yl)ethan-1-one], in that order: 14.4 nM and 50.4 nM. Consider `Cc1cc(Nc2ncnc(Nc3ccccc3S(=O)(=O)C(C)C)n2)c2c(c1C1CCN(S(C)(=O)=O)CC1)C[C@@H](C)O2` [Example 4, (R)—N^2-(2,5-dimethyl-4-(1-(methylsulfonyl)piperidin-4-yl)-2,3-dihydrobenzofuran-7-yl)-N^4-(2-(isopropylsulfonyl)phenyl)-1,3,5-triazine-2,4-diamine], for which the IC50 in the assay on SUP-M2 cells fell in the range of 111 to 333 nM. Take `Cc1cc(Nc2ncnc(Nc3ccccc3S(=O)(=O)C(C)C)n2)c2c(c1C1CCN(CCO)CC1)C[C@@H](C)O2` [Example 5, (R)-2-(4-(7-((4-((2-(isopropylsulfonyl)phenyl)amino)-1,3,5-triazin-2-yl)amino)-2,5-dimethyl-2,3-dihydrobenzofuran-4-yl)piperidin-1-yl)ethan-1-ol]: the IC50 was 57.7 nM in the assay with NCI-H3122 cells and 70 nM in the assay with SUP-M2 cells. `CCOC(=O)CN1CCC(c2c(C)cc(Nc3ncnc(Nc4ccccc4S(=O)(=O)C(C)C)n3)c3c2C[C@@H](C)O3)CC1` [Example 6, Ethyl (R)-2-(4-(7-((4-((2-(isopropylsulfonyl)phenyl)amino)-1,3,5-triazin-2-yl)amino)-2,5-dimethyl-2,3-dihydrobenzofuran-4-yl)piperidin-1-yl)acetate] displayed an IC50 with SUP-M2 cells of 111 to 333 nM. Same read-out and setting: to `Cc1cc(Nc2ncnc(Nc3ccccc3S(=O)(=O)C(C)C)n2)c2c(c1C1CCN(CC(=O)N(C)C)CC1)C[C@@H](C)O2` [Example 7, (R)-2-(4-(7-((4-((2-(isopropylsulfonyl)phenyl)amino)-1,3,5-triazin-2-yl)amino)-2,5-dimethyl-2,3-dihydrobenzofuran-4-yl)piperidin-1-yl)-N,N-dimethylacetamide] belongs 111 to 333 nM. On the same count and under the same terms, for `Cc1cc(Nc2ncnc(Nc3ccccc3S(=O)(=O)C(C)C)n2)c2c(c1C1CCN(CCS(C)(=O)=O)CC1)C[C@@H](C)O2` [Example 8, (R)—N^2-(2,5-dimethyl-4-(1-(2-(methylsulfonyl)ethyl)piperidin-4-yl)-2,3-dihydrobenzofuran-7-yl)-N^4-(2-(isopropylsulfonyl)phenyl)-1,3,5-triazine-2,4-diamine] the value was 111 to 333 nM.

Take `Cc1cc(Nc2ncnc(Nc3ccccc3S(=O)(=O)C(C)C)n2)c2c(c1C1CCN(C(=O)CO)CC1)C[C@@H](C)O2` [Example 9, (R)-2-hydroxy-1-(4-(7-((4-((2-(isopropylsulfonyl)phenyl)amino)-1,3,5-triazin-2-yl)amino)-2,5-dimethyl-2,3-dihydrobenzofuran-4-yl)piperidin-1-yl)ethan-1-one]: the IC50 came to 15.9 nM in the assay on NCI-H3122 cells and 33.7 nM in the assay with SUP-M2 cells.

As to `Cc1cc(Nc2ncnc(Nc3ccccc3S(=O)(=O)C(C)C)n2)c2c(c1C1CCN(C(=O)CN)CC1)C[C@@H](C)O2` [Example 10, (R)-2-amino-1-(4-(7-((4-((2-(isopropylsulfonyl)phenyl)amino)-1,3,5-triazin-2-yl)amino)-2,5-dimethyl-2,3-dihydrobenzofuran-4-yl)piperidin-1-yl)ethan-1-one], the IC50 in the assay with NCI-H3122 cells is 134 nM; in the assay with SUP-M2 cells, 79.6 nM. For `Cc1cc(Nc2ncnc(Nc3ccccc3S(=O)(=O)C(C)C)n2)c2c(c1C1CCN(C(=O)[C@H](C)N)CC1)C[C@@H](C)O2` [Example 11, (S)-2-amino-1-(4-((R)-7-((4-((2-(isopropylsulfonyl)phenyl)amino)-1,3,5-triazin-2-yl)amino)-2,5-dimethyl-2,3-dihydrobenzofuran-4-yl)piperidin-1-yl)propan-1-one] the same measures were 25.7 nM and 67.1 nM.
